# What was measured:
# 5-HT2 receptor = target: T1, 5-HT2 receptor (Rattus norvegicus, UniProt P14842); assay: Affinity for 5-HT2 receptor (binding with 3H-ketanserine); settings: rat cerebral cortex crude synapse membrane, 37° C. 20 min
# T1 construct: A crude synapse membrane was prepared from a freeze-dried rat cerebral cortex; from tissue; host or cells: rat cerebral cortex (crude synaptic membrane)
# Description: Affinity for 5-HT2 Receptor (Binding with ^3H-ketanserine)
# Preparation of a crude synapse membrane and a binding test were performed according to the method of Leysen J. E. et al. [Molecular Pharmacology, Vol. 21, p. 301 (1982)]. A crude synapse membrane was prepared from a freeze-dried rat cerebral cortex, and the membrane specimen and ^3H-ketanserine were incubated in the presence of a test compound at 37° C. for 20 min. After the completion of the reaction, the reaction mixture was immediately filtered by suction on a Whatmann GF/B filter (trademark), and the radioactivity on the filter was measured on a liquid scintillation counter. The amount of non-specific binding was measured in the presence of 10 μM mianserin. The 50% inhibition concentration (IC50) of the test compound was calculated by the nonlinear regression. In the same manner as above, a comparative test was performed using sarpogrelate as a control compound.
# [1] = test system: platelet rich plasma (PRP); assay: Platelet aggregation suppressive action (collagen + 5-HT, platelet rich plasma); assay type: cell-based, Japanese white rabbit; settings: Oryctolagus cuniculus, rabbit PRP, collagen + 3 μM 5-HT
# Description: Platelet Aggregation Suppressive Action
# Preparation of platelet rich plasma and a platelet aggregation test were performed according to the method of Born, G. V. R. et al. [Journal of Physiology, Vol. 168, p. 178 (1963)] as in the following. Blood was drawn from the carotid of male Japanese white rabbit with local anesthesia with xylocaine, using a syringe previously added with 3.8% sodium citrate in a 1/10 amount of the blood. This blood was centrifuged at 1000 round/min for 10 min at room temperature to give a platelet rich plasma (PRP) supernatant. This supernatant was further centrifuged at 3000 round/min for 10 min to give a platelet poor plasma (PPP) supernatant. Taking the measurement values of PRP and PPP as 0% aggregation and 100% aggregation, respectively, the platelet aggregation rate (%) was calculated. A test compound (3 μl) was added to 300 μl of PRP and the mixture was incubated at 37° C. for 5 min. Thereto were added, as aggregation inducing substances, collagen at a concentration prohibitive on aggregation by its single administration, and the final concentration of 3 μM of 5-HT, and the aggregation reaction was recorded for 7 min. The effect of the test compound was determined as percent suppression relative to the control group, using the maximum aggregation as an index. The 50% inhibition concentration (IC50) of the test compound was calculated by the nonlinear regression. In the same manner as above, a comparative experiment was conducted for the use of sarpogrelate and cilostazol, respectively as a control compound.
# [2] = test system: rat intermittent claudication model; assay: Effect on rat intermittent claudication model (femoral artery ligation, treadmill walking distance); assay type: in vivo; settings: for walking distance 8 days after administration (Δm): change vs value before ligation, mean±SE
# From the text: Effect on Rat Intermittent Claudication Model
# Rat was anesthetized and the right thigh was opened to expose femoral artery, which was ligated with a silk thread at a position nearest possible to the heart (upstream). In addition, a position about 1 cm from the ligation site to the periphery was ligated with a silk thread, making two ligature sites. Starting from the next day of preparation of a model to day 8 therefrom, a drug was orally administered twice a day for 8 days. However, the drug was orally administered only in the evening of the first day of administration and only in the morning of the final administration day. The walking distance was measured one day before model preparation (initial value), day 1, day 5 and day 8 with a treadmill apparatus. Using a gait test table without an angle of inclination, the conveyor advance speed was first set to 15 m/min, and the speed was increased every 5 min by 5 m/min until the animal failed walking three times, based on which the walking distance of the rat was measured. In the same manner as above, a comparative experiment was performed using sarpogrelate and cilostazol, respectively as a control compound.
# In the Table, the values are mean±standard error (n=8 but n=6 only for sarpogrelate group).
# [3] = test system: lauric acid-induced peripheral arterial obstruction model; assay: Rat lauric acid-induced peripheral arterial obstruction model (therapeutic effect); assay type: in vivo, Wistar rats; settings: for Lesion score 1 day later / Lesion score 3 days later / Lesion score 5 days later / Lesion score 7 days later: score 0 normal to 6; for peripheral circulatory disturbance (in words): from one day after the lauric acid injection
# Description: (§1) Effect on Rat Lauric Acid-induced Peripheral Arterial Obstruction Model (Therapeutic Effect) Under anesthesia, lauric acid (0.75 mg/0.15 mL) was injected into the right femoral artery of Wistar rats (6-8 weeks of age). A drug was administered one day after the lauric acid injection. The drug was orally administered twice a day for 7 days. In the same manner as above, a comparative experiment was performed using sarpogrelate and cilostazol as a control compound. In the Table, the values are mean±standard error (n=11).
# erythrocytes = assay: Improvement effect of erythrocyte deformation (Nuclepore membrane filter method); assay type: in vivo, SHRSP (stroke prone spontaneously hypertensive rat); settings: SHRSP; for Volume of erythrocytes passed: 5 μm filter
# Description: Improvement Effect of Erythrocyte Deformation
# Blood was drawn under anesthesia from SHRSP (stroke prone spontaneously hypertensive rat) loaded with 1% saline for 3 weeks, and the time necessary for 0.5 mL of blood to pass through a filter (pore size 5 μm, Nuclepore) was measured by the Nuclepore membrane filter method of Reid et al., based on which the volume (mL/min) of the erythrocytes passed was calculated. The volume of the erythrocytes passed was taken as an index of erythrocyte deformation. A drug was orally administered 1 hour before drawing the blood. In the same manner as above, a comparative experiment was performed using sarpogrelate as a control compound.
# (§2) In the Table, the values are mean±standard error (n=6).
# [4] = test system: lauric acid-induced peripheral arterial obstruction model; assay: Lauric acid-induced peripheral arterial obstruction model (preventive effect); assay type: in vivo, Wistar rats; settings: for peripheral circulatory disturbance (in words): prior to the lauric acid injection; for Lesion score 1 day later / Lesion score 3 days later / Lesion score 5 days later / Lesion score 7 days later: first dose 1 h before lauric acid, score 0 normal to 6
# Description: as §1, with “on” for “on Rat”, “Model (Preventive” for “Model (Therapeutic”, “administered 1 hour before” for “administered one day after”, “for 8” for “for 7”, “using” for “using sarpogrelate and”, “error (n=12).” for “error (n=11).”
# [5] = test system: collateral circulation model; assay: Promotion of collateral circulation (femoral artery ligation, ADP-added platelet suspension, leg blood flow); assay type: in vivo, rat; settings: for Change in blood flow, control side / Change in blood flow, femoral artery ligation side: 1 hour, after ADP-added platelet suspension
# Description: Promotion of Collateral Circulation
# A collateral circulation model was prepared by rat femoral artery ligation, and a test drug was orally administered 7 days later. At 1 hour from the test drug administration, ADP-added platelet suspension (200 μM) was administered under anesthesia into the femoral artery (1 mL/kg), and changes in the leg blood flow were measured. In the same manner as above, a comparative experiment was performed using cilostazol as a control compound.
# as §2
# [6] = Effect on heart rate and blood pressure; assay type: in vivo, Wistar rat; settings: for Change of blood pressure / Change of heart rate: 1 hour, no anesthesia or restriction
# Description: Effect on Heart Rate and Blood Pressure
# A catheter was placed in the femoral artery of Wistar rat, and the blood pressure and heart rate were invasively monitored under no anesthesia or restriction. At 1 hour from the oral administration of the test drug, blood pressure and heart rate were taken. In the same manner as above, a comparative experiment was performed using cilostazol as a control compound.
# In the Table, the values are mean±standard error (n=4).
# [7] = control compounds, 100 mg/kg per Table 2
# [8] = 100 mg/kg oral twice a day from one day after lauric acid
# [9] = 10 mg/kg oral twice a day from one day after lauric acid
# [10] = 30 mg/kg oral twice a day from one day after lauric acid
# T1 sequence (P14842 whole entry): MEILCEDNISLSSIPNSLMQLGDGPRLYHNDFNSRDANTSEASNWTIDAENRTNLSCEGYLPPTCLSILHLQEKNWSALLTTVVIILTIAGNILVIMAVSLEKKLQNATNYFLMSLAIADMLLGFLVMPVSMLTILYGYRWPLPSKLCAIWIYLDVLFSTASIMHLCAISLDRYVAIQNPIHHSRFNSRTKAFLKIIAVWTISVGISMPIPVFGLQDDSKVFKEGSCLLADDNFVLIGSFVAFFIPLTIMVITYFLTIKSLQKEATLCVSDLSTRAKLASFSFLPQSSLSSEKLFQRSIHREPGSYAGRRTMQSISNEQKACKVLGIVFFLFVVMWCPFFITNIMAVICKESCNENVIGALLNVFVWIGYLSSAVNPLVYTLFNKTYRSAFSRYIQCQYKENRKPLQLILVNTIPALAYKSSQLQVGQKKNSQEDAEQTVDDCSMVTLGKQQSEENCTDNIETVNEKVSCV
compound,measurement,setting,value
"COc1cccc(CCc2ccccc2OCC(CN(C)C)OC(=O)CCC(=O)O)c1 (stereo not shown) [Sarpogrelate, reference compound]",IC50,5-HT2 receptor,27 nM
same,IC50,[1],260 nM
same,walking distance 8 days after administration (Δm),[2]; 100 mg/kg oral twice a day,−151.3 ± 35.4 m
same,walking distance at day 8 of ligation (in words),[2]; [7],increased the walking distance but the increase was not significant
same,Lesion score 1 day later,[3]; [8],1.9 ± 0.2
same,Lesion score 3 days later,[3]; [8],2.3 ± 0.3
same,Lesion score 5 days later,[3]; [8],2.1 ± 0.5
same,Lesion score 7 days later,[3]; [8],2.4 ± 0.6
same,"volume of the erythrocyte passed, % of the vehicle group",erythrocytes; 100 mg/kg,128%
same,Volume of erythrocytes passed,erythrocytes; 100 mg/kg oral 1 hour before drawing blood,1.01 ± 0.10 mL/min
"O=C(N[C@H]1CCN(CCc2ccc(F)cc2)C1)C12CC3CC(CC(C3)C1)C2 [Example 2, (S)-N-(1-(2-(4-fluorophenyl)ethyl)pyrrolidin-3-yl)-1-adamantanecarboxamide]",IC50,5-HT2 receptor,0.18 nM
same,IC50,[1],1.9 nM
same,walking distance 8 days after administration (Δm),[2]; 3 mg/kg oral twice a day,−94.3 ± 36.1 m
same,walking distance at day 8 of ligation (in words),"[2]; 3 mg/kg, 10 mg/kg and 30 mg/kg, b.i.d.",significantly increased
same,walking distance 8 days after administration (Δm),[2]; 10 mg/kg oral twice a day,−89.9 ± 22.2 m
same,walking distance 8 days after administration (Δm),[2]; 30 mg/kg oral twice a day,−88.6 ± 25.0 m
same,peripheral circulatory disturbance (in words),[4]; 10 mg/kg and 30 mg/kg,significantly reduced the peripheral circulatory disturbance
same,Lesion score 1 day later,[4]; 10 mg/kg oral twice a day,1.8 ± 0.1
same,Lesion score 3 days later,[4]; 10 mg/kg oral twice a day,2.1 ± 0.2
same,Lesion score 5 days later,[4]; 10 mg/kg oral twice a day,1.8 ± 0.3
same,Lesion score 7 days later,[4]; 10 mg/kg oral twice a day,1.9 ± 0.5
same,Lesion score 1 day later,[4]; 30 mg/kg oral twice a day,1.8 ± 0.2
same,Lesion score 3 days later,[4]; 30 mg/kg oral twice a day,2.0 ± 0.3
same,Lesion score 5 days later,[4]; 30 mg/kg oral twice a day,1.5 ± 0.4
same,Lesion score 7 days later,[4]; 30 mg/kg oral twice a day,1.2 ± 0.5
same,Lesion score 1 day later,[3]; [9],2.0 ± 0.0
same,Lesion score 3 days later,[3]; [9],2.2 ± 0.1
same,Lesion score 5 days later,[3]; [9],2.2 ± 0.4
same,Lesion score 7 days later,[3]; [9],2.2 ± 0.4
same,Lesion score 1 day later,[3]; [10],1.8 ± 0.1
same,Lesion score 3 days later,[3]; [10],1.7 ± 0.2
same,Lesion score 5 days later,[3]; [10],1.3 ± 0.3
same,Lesion score 7 days later,[3]; [10],0.9 ± 0.5
same,peripheral circulatory disturbance (in words),[3]; 30 mg/kg,significantly reduced the peripheral circulatory disturbance
same,"volume of the erythrocyte passed, % of the vehicle group",erythrocytes; 10 mg/kg,133%
same,Volume of erythrocytes passed,erythrocytes; 10 mg/kg oral 1 hour before drawing blood,1.05 ± 0.13 mL/min
same,"volume of the erythrocyte passed, % of the vehicle group",erythrocytes; 30 mg/kg,186%
same,Volume of erythrocytes passed,erythrocytes; 30 mg/kg oral 1 hour before drawing blood,1.47 ± 0.19 mL/min
same,decrease in leg blood flow caused by ADP-added platelet suspension (in words),[5]; 10 mg/kg oral,suppressed the decrease in the blood flow in the legs on both sides
same,"Change in blood flow, control side",[5]; 10 mg/kg oral,−10.1 ± 1.4 %
same,"Change in blood flow, femoral artery ligation side",[5]; 10 mg/kg oral,−11.8 ± 1.2 %
same,influence on heart rate or blood pressure (in words),[6]; 30 mg/kg and 100 mg/kg,did not influence the heart rate or blood pressure
same,Change of blood pressure,[6]; 30 mg/kg oral,0.0 ± 1.5 mmHg
same,Change of heart rate,[6]; 30 mg/kg oral,−1.3 ± 4.7 beats/min
same,Change of blood pressure,[6]; 100 mg/kg oral,−2.8 ± 0.8 mmHg
same,Change of heart rate,[6]; 100 mg/kg oral,−4.5 ± 5.2 beats/min
"O=C1CCc2cc(OCCCCc3nnnn3C3CCCCC3)ccc2N1 [Cilostazol, reference compound]",IC50,[1],1380 nM
same,walking distance 8 days after administration (Δm),[2]; 100 mg/kg oral twice a day,−149.8 ± 22.7 m
same,walking distance at day 8 of ligation (in words),[2]; [7],increased the walking distance but the increase was not significant
same,Lesion score 1 day later,[4]; 100 mg/kg oral twice a day,1.8 ± 0.1
same,Lesion score 3 days later,[4]; 100 mg/kg oral twice a day,2.2 ± 0.2
same,Lesion score 5 days later,[4]; 100 mg/kg oral twice a day,1.8 ± 0.4
same,Lesion score 7 days later,[4]; 100 mg/kg oral twice a day,2.2 ± 0.5
same,peripheral circulatory disturbance (in words),[4]; 100 mg/kg,significantly reduced the peripheral circulatory disturbance
same,Lesion score 3 days later,[3]; [8],1.5 ± 0.3
same,Lesion score 5 days later,[3]; [8],1.4 ± 0.4
same,Lesion score 7 days later,[3]; [8],1.3 ± 0.4
same,peripheral circulatory disturbance (in words),[3]; 100 mg/kg,significantly reduced the peripheral circulatory disturbance
same,decrease in leg blood flow caused by ADP-added platelet suspension (in words),[5]; 100 mg/kg,suppressed a decrease in the blood flow on the ligation side only slightly
same,"Change in blood flow, control side",[5]; 100 mg/kg oral,−27.0 ± 5.0 %
same,"Change in blood flow, femoral artery ligation side",[5]; 100 mg/kg oral,−63.3 ± 2.4 %
same,Change of blood pressure,[6]; 100 mg/kg oral,1.3 ± 1.3 mmHg
same,Change of heart rate,[6]; 100 mg/kg oral,43.8 ± 6.7 beats/min
same,influence on heart rate (in words),[6]; 300 mg/kg as printed,increased the heart rate
